From patent US20260256925A1, “INDAZOLE DERIVATIVES AS ESTROGEN RECEPTOR DEGRADERS” (REGENTS OF THE UNIVERSITY OF MICHIGAN, priority 2022, published 2026) come the findings set out here.

As usually defined, the DC50 is the concentration giving 50% degradation.

For this assay, the target named is T1, ER (Homo sapiens, UniProt P03372).
T1 construct: endogenous in cells; probably T47D or MCF-7
T1 sequence (P03372 1-595): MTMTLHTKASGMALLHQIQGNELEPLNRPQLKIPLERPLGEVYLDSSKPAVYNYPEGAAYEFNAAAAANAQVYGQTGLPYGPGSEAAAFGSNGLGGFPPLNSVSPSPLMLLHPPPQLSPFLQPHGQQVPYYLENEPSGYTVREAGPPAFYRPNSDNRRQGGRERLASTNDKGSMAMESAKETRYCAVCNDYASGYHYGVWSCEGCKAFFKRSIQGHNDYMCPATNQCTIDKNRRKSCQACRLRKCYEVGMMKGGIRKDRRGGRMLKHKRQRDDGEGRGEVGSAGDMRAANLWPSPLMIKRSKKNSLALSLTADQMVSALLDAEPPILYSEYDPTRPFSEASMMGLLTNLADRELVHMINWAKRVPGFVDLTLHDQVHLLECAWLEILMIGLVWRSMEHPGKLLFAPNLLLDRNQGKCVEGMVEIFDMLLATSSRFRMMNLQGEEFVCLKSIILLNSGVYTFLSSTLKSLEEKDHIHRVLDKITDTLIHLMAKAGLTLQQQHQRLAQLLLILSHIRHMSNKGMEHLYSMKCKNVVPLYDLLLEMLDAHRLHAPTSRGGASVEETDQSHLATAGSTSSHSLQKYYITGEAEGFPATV
In words: Western blot analysis (compounds B1-B126). In kind it is cell-based. As to conditions: ER degradation, read-out: Traditional Western Degradation potency (DC50). On the procedure: Western Blot Analysis. The cells that are treated with the compounds are lysed in Radioimmunoprecipitation Assay Protein Lysis and Extraction Buffer (e.g., 25 mmol/L Tris.HCl, pH 7.6, 150 mmol/L NaCl, 1% Nonidet P-40, 1% sodium deoxycholate, and 0.1% sodium dodecyl sulfate) containing proteinase inhibitor cocktail. Equal amounts of total protein are electrophoresed through 10% SDS-polyacrylamide gels after determination of protein concentration by BCA assay. The separated protein bands are transferred onto PVDF membranes and blotted against different antibodies. The blots are scanned, and the band intensities are quantified (e.g., by using GelQuant.NET software provided by biochemlabsolutions.com). The relative mean intensity of target proteins is expressed after normalization to the intensity of glyceraldehyde-3-phosphate dehydrogenase bands.
Western Blot Analysis. Western blot analysis was performed essentially as described previously. The cells treated with indicated compounds were lysed in Radioimmunoprecipitation Assay Protein Lysis and Extraction Buffer (25 mmol/L Tris.HCl, pH 7.6, 150 mmol/L NaCl, 1% Nonidet P-40, 1% sodium deoxycholate, and 0.1% sodium dodecyl sulfate) containing proteinase inhibitor cocktail (Roche Diagnostics, Mannheim, Germany). Equal amounts of total protein were electrophoresed through 10% SDS-polyacrylamide gels after determination of protein concentration by BCA assay (Fisher Scientific, Pittsburgh, PA). The separated protein bands were transferred onto PVDF membranes (GE Healthcare Life Sciences, Marlborough, MA) and blotted against different antibodies, as indicated. The blots were scanned, and the band intensities were quantified using GelQuant.NET software provided by biochemlabsolutions.com. The relative mean intensity of target proteins was expressed after normalization to the intensity of glyceraldehyde-3-phosphate dehydrogenase bands.
On the technique in general: A western blot detects proteins with antibodies after separation by electrophoresis.
On to `C[C@@H]1Cc2c(ccc3[nH]ncc23)[C@@H](c2c(F)cc(N3CCC(CN4CC5(Cc6cc7c(cc6C5)C(=O)N(C5CCC(=O)NC5=O)C7=O)C4)CC3)cc2F)N1CC(F)F` (stereo partly drawn) [Compound B14, 1-((1-(4-((6S,8R)-7-(2,2-difluoroethyl)-8-methyl-6,7,8,9-tetrahydro-3H-pyrazolo[4,3-f]isoquinolin-6-yl)-3,5-difluorophenyl)piperidin-4-yl)methyl)-2′-(2,6-dioxopiperidin-3-yl)-5′,7′-dihydro-1′H-spiro[azetidine-3,6′-cyclopenta[f]isoindole]-1′,3′(2′H)-dione], for which the DC50 was above 100 nM.
Then `C[C@@H]1Cc2c(ccc3[nH]ncc23)[C@@H](c2c(F)cc(N3CCC(CN4CCN5c6cc7c(cc6N(C)C[C@@H]5C4)C(=O)N(C4CCC(=O)NC4=O)C7)CC3)cc2F)N1CC(F)F` (stereo partly drawn) [Compound B18, 3-((S)-3-((1-(4-((6S,8R)-7-(2,2-difluoroethyl)-8-methyl-6,7,8,9-tetrahydro-3H-pyrazolo[4,3-f]isoquinolin-6-yl)-3,5-difluorophenyl)piperidin-4-yl)methyl)-6-methyl-8-oxo-2,3,4,4a,5,6,8,10-octahydropyrazino[1,2-a]pyrrolo[3,4-g]quinoxalin-9(1H)-yl)piperidine-2,6-dione], with 10 to 100 nM; and `C[C@@H]1Cc2c(ccc3[nH]ncc23)[C@@H](c2ccc(C3=CCC(C(=O)N4CCC(N5Cc6cc7c(cc6C5)C(=O)N(C5CCC(=O)NC5=O)C7=O)CC4)CC3)cn2)N1CC(F)(F)F` (stereo partly drawn) [Compound B11, 2-(2,6-dioxopiperidin-3-yl)-6-(1-(4-(6-((6S,8R)-8-methyl-7-(2,2,2-trifluoroethyl)-6,7,8,9-tetrahydro-3H-pyrazolo[4,3-f]isoquinolin-6-yl)pyridin-3-yl)cyclohex-3-ene-1-carbonyl)piperidin-4-yl)-6,7-dihydropyrrolo[3,4-f]isoindole-1,3(2H,5H)-dione], with below 10 nM; and `C[C@@H]1Cc2c(ccc3[nH]ncc23)[C@@H](c2c(F)cc(N3CCC(CN4CCN5c6ccc7c(c6OC[C@@H]5C4)CN(C4CCC(=O)NC4=O)C7=O)CC3)cc2F)N1CC(F)F` (stereo partly drawn) [Compound B105, 3-((S)-7-((1-(4-((6S,8R)-7-(2,2-difluoroethyl)-8-methyl-6,7,8,9-tetrahydro-3H-pyrazolo[4,3-f]isoquinolin-6-yl)-3,5-difluorophenyl)piperidin-4-yl)methyl)-1-oxo-1,3,5,5a,6,7,8,9-octahydro-2H-pyrazino[1′,2′:4,5][1,4]oxazino[2,3-e]isoindol-2-yl)piperidine-2,6-dione], with above 100 nM.
Then `C[C@@H]1Cc2c(ccc3[nH]ncc23)[C@@H](c2c(F)cc([C@H]3CC[C@H](C(=O)N4CC(CN5Cc6cc7c(cc6C5)C(=O)N(C5CCC(=O)NC5=O)C7=O)C4)CC3)cc2F)N1CC(F)F` (stereo partly drawn) [Compound B3, 6-((1-((1S,4r)-4-(4-((6S,8R)-7-(2,2-difluoroethyl)-8-methyl-6,7,8,9-tetrahydro-3H-pyrazolo[4,3-f]isoquinolin-6-yl)-3,5-difluorophenyl)cyclohexane-1-carbonyl)azetidin-3-yl)methyl)-2-(2,6-dioxopiperidin-3-yl)-6,7-dihydropyrrolo[3,4-f]isoindole-1,3(2H,5H)-dione], with above 100 nM.
The figure for `C[C@@H]1Cc2c(ccc3[nH]ncc23)[C@@H](c2c(F)cc(N3CCC(C(=O)N4C5CCC4CC(N4Cc6cc7c(cc6C4)C(=O)N(C4CCC(=O)NC4=O)C7=O)C5)CC3)cc2F)N1CC(F)F` (stereo partly drawn) [Compound B103, 6-(8-(1-(4-((6S,8R)-7-(2,2-difluoroethyl)-8-methyl-6,7,8,9-tetrahydro-3H-pyrazolo[4,3-f]isoquinolin-6-yl)-3,5-difluorophenyl)piperidine-4-carbonyl)-8-azabicyclo [3.2.1]octan-3-yl)-2-(2,6-dioxopiperidin-3-yl)-6,7-dihydropyrrolo [3,4-f]isoindole-1,3(2H,5H)-dione] is above 100 nM; for `C[C@@H]1Cc2c(ccc3[nH]ncc23)[C@@H](c2c(F)cc(N3CC4(CCN(C(=O)CN5Cc6cc7c(cc6C5)C(=O)N(C5CCC(=O)NC5=O)C7=O)CC4)C3)cc2F)N1CC(F)F` (stereo partly drawn) [Compound B13, 6-(2-(2-(4-((6S,8R)-7-(2,2-difluoroethyl)-8-methyl-6,7,8,9-tetrahydro-3H-pyrazolo[4,3-f]isoquinolin-6-yl)-3,5-difluorophenyl)-2,7-diazaspiro[3.5]nonan-7-yl)-2-oxoethyl)-2-(2,6-dioxopiperidin-3-yl)-6,7-dihydropyrrolo[3,4-f]isoindole-1,3(2H,5H)-dione] it is below 10 nM; for `C[C@@H]1Cc2c(ccc3[nH]ncc23)[C@@H](c2c(F)cc(N3CCC(CN4CCN(c5cc6c(cc5F)C(=O)N(C5CCC(=O)NC5=O)C6=O)CC4)CC3)cc2F)N1CC(F)F` (stereo partly drawn) [Compound B66, 5-(4-((1-(4-((6S,8R)-7-(2,2-difluoroethyl)-8-methyl-6,7,8,9-tetrahydro-3H-pyrazolo[4,3-f]isoquinolin-6-yl)-3,5-difluorophenyl)piperidin-4-yl)mcthyl)pipcrazin-1-yl)-2-(2,6-dioxopiperidin-3-yl)-6-fluoroisoindoline-1,3-dione] it is 10 to 100 nM.
With `C[C@@H]1Cc2c(ccc3[nH]ncc23)[C@@H](c2c(F)cc(C3CCN(C(=O)[C@H]4CC[C@H](N5Cc6cc7c(cc6C5)C(=O)N(C5CCC(=O)NC5=O)C7=O)CC4)CC3)cc2F)N1CC(F)F` (stereo partly drawn) [Compound B7, 6-((1S,4r)-4-(4-(4-((6S,8R)-7-(2,2-difluoroethyl)-8-methyl-6,7,8,9-tetrahydro-3H-pyrazolo[4,3-f]isoquinolin-6-yl)-3,5-difluorophenyl)piperidine-1-carbonyl)cyclohexyl)-2-(2,6-dioxopiperidin-3-yl)-6,7-dihydropyrrolo[3,4-f]isoindole-1,3(2H,5H)-dione], the DC50 is above 100 nM.
As to `C[C@@H]1Cc2c(ccc3[nH]ncc23)[C@@H](c2c(F)cc(N3CCC(C(=O)N4CCC(N5Cc6cc7c(cc6C5)C(=O)N(C5CCC(=O)NC5=O)C7=O)CC4)CC3)cc2F)N1CC(F)F` (stereo partly drawn) [Compound B6, 6-(1-(1-(4-((6S,8R)-7-(2,2-difluoroethyl)-8-methyl-6,7,8,9-tetrahydro-3H-pyrazolo[4,3-f]isoquinolin-6-yl)-3,5-difluorophenyl)piperidine-4-carbonyl)piperidin-4-yl)-2-(2,6-dioxopiperidin-3-yl)-6,7-dihydropyrrolo[3,4-f]isoindole-1,3(2H,5H)-dione], the DC50 is below 10 nM.
On to `COc1c2c(cc3c1C(=O)N(C1CCC(=O)NC1=O)C3=O)CN(CC(=O)N1CCC3(CC1)CCN(c1cc(F)c([C@@H]4c5ccc6[nH]ncc6c5C[C@@H](C)N4CC(F)F)c(F)c1)CC3)C2` (stereo partly drawn) [Compound B17, 6-(2-(9-(4-((6S,8R)-7-(2,2-difluoroethyl)-8-methyl-6,7,8,9-tetrahydro-3H-pyrazolo[4,3-f]isoquinolin-6-yl)-3,5-diazaspiro[5.5]undecan-3-yl)-2-difluorophenyl)-3,9-oxoethyl)-2-(2,6-dioxopiperidin-3-yl)-4-methoxy-6,7-dihydropyrrolo[3,4-f]isoindole-1,3(2H,5H)-dione], for which the DC50 was below 10 nM.
Regarding `C[C@@H]1Cc2c(ccc3[nH]ncc23)[C@@H](c2c(F)cc(N3CCC(CN4CCC(N5Cc6cc7c(cc6C5=O)CN(C5CCC(=O)NC5=O)C7=O)CC4)CC3)cc2F)N1CC(F)F` (stereo partly drawn) [Compound B19, 2-(1-((1-(4-((6S,8R)-7-(2,2-difluoroethyl)-8-methyl-6,7,8,9-tetrahydro-3H-pyrazolo[4,3-f]isoquinolin-6-yl)-3,5-difluorophenyl)piperidin-4-yl)methyl)piperidin-4-yl)-6-(2,6-dioxopiperidin-3-yl)-2,3,6,7-tetrahydropyrrolo[3,4-f]isoindole-1,5-dione], the DC50 is below 10 nM.
On to `C[C@@H]1Cc2c(ccc3[nH]ncc23)[C@@H](c2c(F)cc(N3CCC4(CCN(C(=O)CN5Cc6cc7c(cc6C5)C(=O)N(C5CCC(=O)NC5=O)C7=O)CC4)C3)cc2F)N1CC(F)F` (stereo partly drawn) [Compound B12, 6-(2-(2-(4-((6S,8R)-7-(2,2-difluoroethyl)-8-methyl-6,7,8,9-tetrahydro-3H-pyrazolo[4,3-f]isoquinolin-6-yl)-3,5-difluorophenyl)-2,8-diazaspiro[4.5]decan-8-yl)-2-oxoethyl)-2-(2,6-dioxopiperidin-3-yl)-6,7-dihydropyrrolo[3,4-f]isoindole-1,3(2H,5H)-dione], for which the DC50 lay within 10 to 100 nM.
